Measurements: PMC8784342, “Investigation of sugar binding kinetics of the E. coli sugar/H^+ symporter XylE using solid-supported membrane-based electrophysiology” (The Journal of Biological Chemistry, 2021)
Several values for one entry are separate records, joined by “and”; a condition that tells them apart may be missing. Equal values may be shown once.

Columns and labels:
wt LacY [1] = target: T1, wt LacY (Escherichia coli, UniProt P02920); test: SSM-based electrophysiology, proteoliposomes with wt LacY; assay type: biochemical; conditions: pH 5.0; 100 mM substrate
T1 construct: made in house; host or cells: E. coli XL1-Blue
T1 sequence (P02920 1-417): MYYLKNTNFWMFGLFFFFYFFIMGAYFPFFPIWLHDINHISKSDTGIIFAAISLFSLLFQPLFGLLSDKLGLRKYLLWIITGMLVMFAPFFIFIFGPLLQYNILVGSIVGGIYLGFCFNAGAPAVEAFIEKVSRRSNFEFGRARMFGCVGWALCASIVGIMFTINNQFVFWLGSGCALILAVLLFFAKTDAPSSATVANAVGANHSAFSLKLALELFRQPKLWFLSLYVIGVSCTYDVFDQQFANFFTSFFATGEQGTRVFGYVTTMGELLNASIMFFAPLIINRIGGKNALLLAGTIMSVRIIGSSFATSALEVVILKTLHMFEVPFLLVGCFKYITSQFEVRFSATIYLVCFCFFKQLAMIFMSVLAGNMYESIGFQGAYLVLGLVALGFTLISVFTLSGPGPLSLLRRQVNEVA
Method: (§1) Reconstitution of purified proteins (2–20 mg/ml) was carried out with E. coli phospholipids (Avanti Polar Lipids, E. coli polar lipid extract). Preformed liposomes (0.2–2 ml, 10 mg/ml) were dissolved in 1% (w/v) n-octyl-β-D-glucoside, and the protein suspension was mixed on ice to a concentration of 0.2 mg protein/mg lipid (LPR 5).
(§2) Wt XylE, wt FucP, and the mutant proteins were reconstituted using overnight incubation in 400 mg/ml BioBeads (SM-2 Adsorbent Media, Bio-Rad) at 4 °C. After reconstitution, the samples were diluted to 2.5 mg/ml lipid concentration, frozen in liquid nitrogen, and stored at −80 °C. For wt LacY and mutant proteins, this procedure was not successful. We, therefore, applied the previously established n-octyl-β-D-glucoside dilution method (1:100) ([69]).
(§3) SSM measurements were performed as described ([20], [23]). After thawing the sample and sonication in a water bath, 30 μl of proteoliposomes (2.5 mg/ml lipid at LPR 5) was allowed to adsorb for 1 to 2 h to an octadecanethiol/phosphatidylcholine hybrid bilayer on a gold surface (the sensor).
(§4) For measurements, a single solution exchange configuration ([23]) was employed that consisted in three phases of 0.5 s duration each: Flow of nonactivating solution (NA), activating solution (A), and nonactivating solution (NA). Only the activating solution contained the sugar. When pH dependence is determined, pH of NA and A solutions during one experiment are kept constant. Between experiments using different pH values, the sensor was incubated at the new pH for 3 min to equilibrate the intraliposomal pH.
(§5) Instruments with different time resolution were used as required. […] Currents were recorded throughout the entire time and amplified with a current amplifier set to a gain of […] and a rise time of 10 ms (low time-resolution set up) or 3 ms (high time-resolution set up).
(§6) All NA solutions were buffered in 100 mM KPi at a given pH value. NA solutions used with LacY contained 1 mM DTT in addition. A solutions were made from NA solutions by adding the respective sugar at a given concentration to induce the symport reaction. Sugar concentration jumps initiated sugar-proton symport, and charge transfer was measured by capacitive coupling. Therefore, only transient currents were recorded.
(§7) Each dataset represented with error bars was generated by performing the same experiment on multiple sensors (n ≥ 3). Error bars represent standard deviations of the average value. When peak currents are averaged across sensors, datasets are normalized before averaging. When the protein catalyzes transport and PSS currents are negligible, the peak current of the transient represents a good approximation of the current generated by the steady-state symport activity of the transporter. In most cases, peak currents have been used to derive kinetic and thermodynamic parameters according to the equations given in Figure 2 (KM, Imax ∼ Vmax, Hill coefficient n), Figure 4 (KD and rate constants for sugar binding kon and release koff), and Figure 6 (pKa for proton binding and pKb for proton release). Reconstruction of transporter currents for analysis of biphasic currents has been performed as described previously ([70]). This is required when transport and PSS currents are observed at the same time.

E325A LacY = target: T2, E325A LacY (Escherichia coli, UniProt P02920, E325A); test: SSM-based electrophysiology, transport-deficient mutant E325A LacY (PSS currents, electrogenic binding); assay type: biochemical
T2 construct: made in house; host or cells: E. coli XL1-Blue
Method: as §1, §2, §3, §4, §5, §6, §7

wt LacY [2] = target: T1, wt LacY; conditions: pH 7.6, main substrate, cited from earlier work
LacY = conditions: cited from earlier work
single-Cys LacY = target: single-Cys LacY; set-up: method as in PMID 7918438, PMID 15304639; conditions: read-out: KD, protection against labeling; cited from earlier work
D46N FucP = target: T3, D46N FucP (Escherichia coli, UniProt P11551, D46N); test: SSM-based electrophysiology, transport-deficient mutant D46N FucP (PSS currents); assay type: biochemical
T3 construct: made in house; host or cells: E. coli BL21 DE3
Method: as §1, §2, §3, §4, §5, §6, §7

wt XylE = wt XylE (Escherichia coli, UniProt P0AGF4); test: biochemical; set-up: made in house; host or cells: E. coli BL21 DE3
Method: as §1, §2, §3, §4, §5, §6, §7

D27N XylE = target: T4, D27N XylE (Escherichia coli, UniProt P0AGF4, D27N); test: SSM-based electrophysiology, transport-deficient mutant D27N XylE (PSS currents, electrogenic binding); assay type: biochemical
T4 construct: made in house; host or cells: E. coli BL21 DE3
Method: as §1, §2, §3, §4, §5, §6, §7

Q175I/L297F XylE = target: T5, Q175I/L297F XylE (Escherichia coli, UniProt P0AGF4, L297F/Q175I); test: biochemical
T5 construct: made in house; host or cells: E. coli BL21 DE3
Method: as §1
as §2, with “For wt LacY and mutant proteins, this procedure was not successful.” left out
as §3, §4, §5, §6, §7

XylE [3] = conditions: uptake and competition-uptake assays; cited from earlier work
XylE [4] = target: XylE; set-up: method as in PMID 23075985; conditions: read-out: KD, isothermal titration calorimetry; cited from earlier work
wt FucP = target: T6, wt FucP (Escherichia coli, UniProt P11551); test: SSM-based electrophysiology, proteoliposomes with wt FucP; assay type: biochemical
T6 construct: made in house; host or cells: E. coli BL21 DE3
T6 sequence (P11551 1-438): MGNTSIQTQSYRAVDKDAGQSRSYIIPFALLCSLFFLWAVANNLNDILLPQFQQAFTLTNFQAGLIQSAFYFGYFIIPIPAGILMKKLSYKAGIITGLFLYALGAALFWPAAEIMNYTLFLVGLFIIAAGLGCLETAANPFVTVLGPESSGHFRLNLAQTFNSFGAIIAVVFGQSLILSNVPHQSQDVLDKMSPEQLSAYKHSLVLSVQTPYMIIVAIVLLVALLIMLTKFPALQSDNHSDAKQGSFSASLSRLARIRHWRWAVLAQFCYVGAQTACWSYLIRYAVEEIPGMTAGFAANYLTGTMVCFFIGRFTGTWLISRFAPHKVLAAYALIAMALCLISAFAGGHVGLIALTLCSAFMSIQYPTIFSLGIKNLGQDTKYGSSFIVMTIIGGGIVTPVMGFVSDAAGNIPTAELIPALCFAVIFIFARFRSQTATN
Method: as §1, §2, §3, §4, §5, §6, §7

[5] = reconstructed transporter currents, alkaline range, double titration
[6] = EC50,1, double Michaelis–Menten fit, pH 7.6, peak currents
[7] = EC50,2, double Michaelis–Menten fit, pH 7.6, peak currents
[8] = pH 7.6, peak currents, Hill equation

Chain of wt XylE (P0AGF4 whole entry): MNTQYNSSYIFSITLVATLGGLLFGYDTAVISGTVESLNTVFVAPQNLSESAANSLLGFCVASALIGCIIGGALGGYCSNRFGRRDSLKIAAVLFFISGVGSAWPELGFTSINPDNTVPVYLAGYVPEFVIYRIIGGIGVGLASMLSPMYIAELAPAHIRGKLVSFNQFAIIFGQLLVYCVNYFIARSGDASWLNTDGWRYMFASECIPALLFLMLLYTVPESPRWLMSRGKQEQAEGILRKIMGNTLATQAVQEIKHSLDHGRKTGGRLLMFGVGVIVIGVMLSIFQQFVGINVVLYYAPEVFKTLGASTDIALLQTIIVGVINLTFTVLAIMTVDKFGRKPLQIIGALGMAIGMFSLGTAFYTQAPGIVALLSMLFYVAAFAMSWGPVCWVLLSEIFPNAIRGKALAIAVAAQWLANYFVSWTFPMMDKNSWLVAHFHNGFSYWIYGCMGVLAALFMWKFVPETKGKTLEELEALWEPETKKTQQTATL
T5 sequence (P0AGF4 whole entry Q175I/L297F): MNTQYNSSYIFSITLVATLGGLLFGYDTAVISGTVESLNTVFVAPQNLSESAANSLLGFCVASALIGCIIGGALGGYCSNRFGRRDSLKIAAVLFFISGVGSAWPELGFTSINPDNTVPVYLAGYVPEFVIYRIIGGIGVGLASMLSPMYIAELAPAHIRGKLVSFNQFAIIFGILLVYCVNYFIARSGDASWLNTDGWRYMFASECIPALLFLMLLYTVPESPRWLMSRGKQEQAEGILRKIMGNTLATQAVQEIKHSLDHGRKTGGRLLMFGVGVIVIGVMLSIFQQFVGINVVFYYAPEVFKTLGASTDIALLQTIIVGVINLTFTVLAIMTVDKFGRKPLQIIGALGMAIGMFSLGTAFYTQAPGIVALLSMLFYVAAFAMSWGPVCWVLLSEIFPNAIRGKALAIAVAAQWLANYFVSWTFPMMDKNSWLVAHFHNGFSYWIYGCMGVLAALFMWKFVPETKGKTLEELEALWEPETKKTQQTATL
T4 sequence (P0AGF4 whole entry D27N): as the sequence (P0AGF4 whole entry Q175I/L297F) above, with D27N, I175Q, F297L counted along it
T2 sequence (P02920 whole entry E325A): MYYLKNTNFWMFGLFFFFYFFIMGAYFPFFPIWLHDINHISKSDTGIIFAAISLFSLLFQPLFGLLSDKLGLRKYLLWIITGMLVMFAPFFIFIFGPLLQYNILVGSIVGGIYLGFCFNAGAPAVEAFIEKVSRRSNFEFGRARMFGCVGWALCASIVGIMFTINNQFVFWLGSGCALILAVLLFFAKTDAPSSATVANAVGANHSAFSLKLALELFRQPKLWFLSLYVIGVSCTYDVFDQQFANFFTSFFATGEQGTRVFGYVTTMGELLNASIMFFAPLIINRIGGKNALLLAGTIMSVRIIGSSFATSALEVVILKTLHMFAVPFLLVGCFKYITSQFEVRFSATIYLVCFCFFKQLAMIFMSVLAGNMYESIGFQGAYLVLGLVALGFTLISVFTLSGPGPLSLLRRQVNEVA
T3 sequence (P11551 whole entry D46N): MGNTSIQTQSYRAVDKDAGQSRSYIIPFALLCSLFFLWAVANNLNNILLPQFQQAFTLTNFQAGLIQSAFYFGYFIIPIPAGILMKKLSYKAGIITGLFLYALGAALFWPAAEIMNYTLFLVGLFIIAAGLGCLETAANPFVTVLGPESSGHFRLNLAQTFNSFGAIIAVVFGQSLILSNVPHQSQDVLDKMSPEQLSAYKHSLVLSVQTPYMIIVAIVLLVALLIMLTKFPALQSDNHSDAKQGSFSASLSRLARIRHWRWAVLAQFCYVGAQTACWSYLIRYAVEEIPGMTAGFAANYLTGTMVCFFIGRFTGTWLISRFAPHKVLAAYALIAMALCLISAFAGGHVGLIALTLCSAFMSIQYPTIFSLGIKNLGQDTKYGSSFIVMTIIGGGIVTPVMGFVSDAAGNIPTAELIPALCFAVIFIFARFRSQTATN

## OC[C@H]1O[C@@H](O[C@H]2[C@H](O)[C@@H](O)[C@H](O)O[C@@H]2CO)[C@H](O)[C@@H](O)[C@H]1O [D-lactose]
Wt LacY [1]
  Q (pC) wt, PSS transferred charge: 2.6 ± 0.6 (pH 5.0) pC
E325A LacY
  Kd: 20000 ± 3000 µM
E325A LacY; pH 7.6, saturating substrate (100 mM D-lactose, lactulose; 5 mM TDG)
  Q (pC) Mut, transferred charge: 3.1 ± 1.8 (pH 7.6) pC
E325A LacY; saturating substrate (100 mM D-lactose, lactulose; 5 mM TDG), kobs = 1/τ, limited by time resolution
  kobs (s^−1) mut: 260 ± 60 s⁻¹
Wt LacY [2]
  Imax: 0.7 ± 0.2 nA
Wt LacY [2]; read-out: KM (mM) Michaelis–Menten equation
  Km: 5.3 ± 0.5 mM
LacY
  transport rate: 30 to 50 s⁻¹
LacY; radioactively labeled sugars, read-out: KM, literature
  Km: 0.5 to 3 mM
single-Cys LacY
  Kd: 1000 to 10000 µM

## O[C@@H]1[C@@H](O)[C@@H](O)CO[C@H]1O [L-arabinose]
D46N FucP
  induction of PSS currents: do not generate PSS currents

## OC[C@@H]1OC(O)[C@H](O)[C@@H](O)[C@@H]1O (stereo partly drawn) [L-idose]
Wt XylE; pH 7.0
  induction of currents (substrate identification): generated signals identifying them as substrates

## OC[C@H]1OC(O)[C@H](O)[C@@H](O)[C@@H]1O (stereo partly drawn) [D-glucose]
D27N XylE; KD (mM) mut, pH 7.6, hyperbolic fit of peak currents, in Table 3 headed EC50
  Kd: 1.9 ± 0.35 mM
D27N XylE; KD from fit of concentration-dependent kobs, pH 7.6
  Kd: 0.67 ± 0.1 mM
D27N XylE; pH 7.6
  Imax (nA) slow component: <0.05 nA
D27N XylE; pH 7.6, 30 mM substrate
  Q (pC) Mut, transferred charge: 1.1 ± 0.3 (pH 7.6) pC
D27N XylE; pH 7.6, saturating substrate
  IPeak (pA) fast component: 60 pA and 60 ± 25 pA
D27N XylE; saturating substrate (30 mM), kobs = 1/τ, monoexponential fit, limited by time resolution
  kobs (s^−1) mut: 300 ± 40 s⁻¹
D46N FucP
  induction of PSS currents: do not generate PSS currents
Q175I/L297F XylE; pH 7.6, saturating substrate
  IPeak (pA) fast component: 240 pA and 240 ± 40 pA
Q175I/L297F XylE; reconstructed transporter currents, acidic range
  pKa: 4.6 ± 0.1
Q175I/L297F XylE; [5]
  pKb1: ~7.5 and 7.3 ± 0.1
  pKb2: 9.8 ± 0.2
XylE [3]
  transport of radioactively labeled sugar: not transported
XylE [4]
  Kd: 770 µM
Wt XylE
  Kb: 0.0398 nM
Wt XylE; [6]
  EC50: 160 ± 10 µM
Wt XylE; [7]
  EC50: 6500 ± 900 µM
Wt XylE; EC50, Hill fit, pH 7.6, peak currents, Hill equation
  EC50: 920 ± 120 µM
Wt XylE; apparent EC50 (half saturation constant, Michaelis–Menten equation; KM column), pH 7.6, D-glucose-induced slow PSS current, not transport
  EC50: 380 µM and 400 µM
Wt XylE; pH 3.0, 30 mM substrate
  Q (pC) wt, PSS transferred charge: 2.5 ± 1 (pH 3.0) pC
Wt XylE; pH 7.0
  slow peak current amplitude compared with D-xylose-induced currents: 26%
Wt XylE; pH 7.6
  Imax in percent of Imax of the main substrate (D-xylose): 26% and 26 ± 5%
Wt XylE; pH 7.6, hyperbolic fit of peak current
  Imax (nA) slow component: 0.47 ± 0.1 nA
Wt XylE; [8]
  n (Hill coefficient): 0.57 ± 0.03
Wt XylE; pH 7.6, saturating substrate, transport current given as upper limit
  IPeak (pA) fast component: <470 pA
Wt XylE; pH-dependent peak currents, acidic range
  pKa: 4.7 ± 0.1

## OC[C@H]1OC(O)[C@@H](O)[C@H](O)[C@@H]1O (stereo partly drawn) [D-altrose]
Wt FucP; pH 8.0
  induction of currents (substrate identification): generated signals identifying them as substrates

## OC1OC[C@@H](O)[C@@H](O)[C@@H]1O (stereo partly drawn) [D-arabinose]
Wt FucP; [6]
  EC50: 820 ± 530 µM
Wt FucP; [7]
  EC50: 38000 ± 9000 µM
Wt FucP; pH 7.6
  Imax in percent of Imax of the main substrate (L-fucose): 132 ± 13%
Wt FucP; [8]
  n (Hill coefficient): 0.62 ± 0.04
